Read-outs that look alike come from different tables or passages of the source.
How the values were obtained:
[1] = Biodistribution in rats; assay type: in vivo, male Sprague-Dawley rats; conditions: rat; for in vivo metabolic defluorination (bone activity): 5 to 60 min p.i.; for blood uptake / bone uptake / brain uptake / fat uptake / kidney uptake / liver uptake / muscle uptake: iv, mean ± SD, n = 4
[2] = biological target: PDE10A (Rattus norvegicus, UniProt Q9QYJ6); conditions: by 30 min p.i.
[3] = test system: PDE10A

PDE10A (Rattus norvegicus, UniProt Q9QYJ6), sequence (Q9QYJ6 whole entry): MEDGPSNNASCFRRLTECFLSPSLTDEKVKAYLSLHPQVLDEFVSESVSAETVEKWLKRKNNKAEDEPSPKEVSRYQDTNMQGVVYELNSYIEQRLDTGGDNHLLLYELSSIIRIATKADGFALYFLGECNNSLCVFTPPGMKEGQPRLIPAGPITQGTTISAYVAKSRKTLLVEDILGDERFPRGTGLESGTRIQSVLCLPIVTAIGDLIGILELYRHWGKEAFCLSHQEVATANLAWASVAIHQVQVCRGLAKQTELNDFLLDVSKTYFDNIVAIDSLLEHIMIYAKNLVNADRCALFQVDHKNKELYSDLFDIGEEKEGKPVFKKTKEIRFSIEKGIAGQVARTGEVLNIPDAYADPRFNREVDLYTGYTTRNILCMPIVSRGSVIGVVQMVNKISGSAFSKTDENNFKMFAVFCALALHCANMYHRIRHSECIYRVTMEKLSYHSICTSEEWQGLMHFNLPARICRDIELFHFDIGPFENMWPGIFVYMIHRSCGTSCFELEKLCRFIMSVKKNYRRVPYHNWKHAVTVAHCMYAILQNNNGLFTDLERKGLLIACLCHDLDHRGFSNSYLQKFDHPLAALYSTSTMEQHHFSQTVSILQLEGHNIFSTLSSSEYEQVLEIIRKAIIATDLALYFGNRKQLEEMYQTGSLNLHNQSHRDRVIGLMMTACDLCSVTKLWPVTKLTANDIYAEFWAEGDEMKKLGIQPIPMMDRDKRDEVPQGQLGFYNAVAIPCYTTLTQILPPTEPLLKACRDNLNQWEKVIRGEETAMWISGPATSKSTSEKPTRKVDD

Row | Compound | in vivo metabolic defluorination (bone activity) [1] | blood uptake ([1]; 5 min p.i.) | bone uptake ([1]; 5 min p.i.) | brain uptake ([1]; 5 min p.i.) | fat uptake ([1]; 5 min p.i.) | kidney uptake ([1]; 5 min p.i.) | liver uptake ([1]; 5 min p.i.) | muscle uptake ([1]; 5 min p.i.) | bone uptake ([1]; 30 min p.i.) | brain uptake ([1]; 30 min p.i.) | fat uptake ([1]; 30 min p.i.) | kidney uptake ([1]; 30 min p.i.) | liver uptake ([1]; 30 min p.i.) | muscle uptake ([1]; 30 min p.i.) | bone uptake ([1]; 60 min p.i.) | brain uptake ([1]; 60 min p.i.) | fat uptake ([1]; 60 min p.i.) | kidney uptake ([1]; 60 min p.i.) | liver uptake ([1]; 60 min p.i.) | muscle uptake ([1]; 60 min p.i.) | other results
1 | Cn1cc(-c2ccncc2)c(-c2ccc(OCc3cc(F)c4ccccc4n3)cc2)n1 [Compound 18a, 4-Fluoro-2-((4-(1-methyl-4-(pyridin-4-yl)-1H-pyrazol-3-yl)-phenoxy)methyl)quinoline] | undergo in vivo metabolic defluorination in rodents | – | – | – | – | – | – | – | – | – | – | – | – | – | – | – | – | – | – | – | –
2 | Cn1cc(-c2ccncc2)c(-c2ccc(OCc3cc(CCCF)c4ccccc4n3)cc2)n1 [Compound 18c, 4-(3-Fluoropropyl)-2-((4-(1-methyl-4-(pyridin-4-yl)-1H-pyrazol-3-yl)phenoxy)methyl) quinoline] | undergo in vivo metabolic defluorination in rodents | – | – | – | – | – | – | – | – | – | – | – | – | – | – | – | – | – | – | – | –
3 | Cn1cc(-c2ccncc2)c(-c2ccc(OCc3cc(CF)c4ccccc4n3)cc2)n1 [Compound 18b, 4-(Fluoromethyl)-2-((4-(1-methyl-4-(pyridin-4-yl)-1H-pyrazol-3-yl)phenoxy)methyl) quinoline] | undergo in vivo metabolic defluorination in rodents | – | – | – | – | – | – | – | – | – | – | – | – | – | – | – | – | – | – | – | –
4 | Cn1cc(-c2ccncc2)c(-c2ccc(OCc3cc([18F])c4ccccc4n3)cc2)n1 [[^18F]18a, 4-(Fluoro-^18F)-2-((4-(1-methyl-4-(pyridin-4-yl)-1H-pyrazol-3-yl)phenoxy)methyl)quinoline] | – | 0.353 ± 0.063 %ID/g | 0.522 ± 0.116 %ID/g | 0.410 ± 0.063 %ID/g | 0.404 ± 0.102 %ID/g | 1.887 ± 0.296 %ID/g | 6.87 ± 1.27 %ID/g | 0.339 ± 0.053 %ID/g | 4.035 ± 0.153 %ID/g | 0.191 ± 0.036 %ID/g | 0.576 ± 0.154 %ID/g | 1.034 ± 0.131 %ID/g | 3.00 ± 0.91 %ID/g | 0.236 ± 0.019 %ID/g | 6.300 ± 0.314 %ID/g | 0.125 ± 0.009 %ID/g | 0.477 ± 0.099 %ID/g | 0.533 ± 0.119 %ID/g | 1.60 ± 0.87 %ID/g | 0.092 ± 0.010 %ID/g | blood uptake ([1]; 30 min p.i.): 0.376 ± 0.033 %ID/g; blood uptake ([1]; 60 min p.i.): 0.150 ± 0.021 %ID/g; ratio of activity in the striatum versus nontarget brain regions [2]: > 2 fold
5 | Cn1cc(-c2ccncc2)c(-c2ccc(OCc3cc(OCCOCCOCC[18F])c4ccccc4n3)cc2)n1 [[^18F]18g] | appeared more stable to in vivo defluorination | 0.699 ± 0.090 %ID/g | 0.487 ± 0.044 %ID/g | 0.353 ± 0.052 %ID/g | 0.225 ± 0.086 %ID/g | 5.969 ± 0.744 %ID/g | 4.74 ± 1.10 %ID/g | 0.419 ± 0.090 %ID/g | 0.441 ± 0.049 %ID/g | 0.509 ± 0.038 %ID/g | 0.254 ± 0.051 %ID/g | 1.793 ± 0.291 %ID/g | 1.53 ± 0.49 %ID/g | 0.488 ± 0.086 %ID/g | 0.490 ± 0.035 %ID/g | 0.421 ± 0.028 %ID/g | 0.123 ± 0.021 %ID/g | 1.037 ± 0.170 %ID/g | 0.527 ± 0.068 %ID/g | 0.379 ± 0.027 %ID/g | blood uptake ([1]; 30 min p.i.): 0.771 ± 0.061 %ID/g; blood uptake ([1]; 60 min p.i.): 0.646 ± 0.045 %ID/g
6 | Cn1cc(-c2ccncc2)c(-c2ccc(OCc3cc(COCC[18F])c4ccccc4n3)cc2)n1 [[^18F]18e, 4-((2-(Fluoro-^18F)ethoxy)methyl)-2-((4-(1-methyl-4-(pyridin-4-yl)-1H-pyrazol-3-yl)phenoxy)methyl)quinoline] | appeared more stable to in vivo defluorination | 0.440 ± 0.038 %ID/g | 0.133 ± 0.028 %ID/g | 0.213 ± 0.039 %ID/g | 0.139 ± 0.031 %ID/g | 0.981 ± 0.163 %ID/g | 3.99 ± 0.82 %ID/g | 0.155 ± 0.040 %ID/g | 0.170 ± 0.030 %ID/g | 0.353 ± 0.021 %ID/g | 0.139 ± 0.037 %ID/g | 0.632 ± 0.123 %ID/g | 0.987 ± 0.038 %ID/g | 0.265 ± 0.117 %ID/g | 0.337 ± 0.072 %ID/g | 0.343 ± 0.033 %ID/g | 0.066 ± 0.018 %ID/g | 0.485 ± 0.045 %ID/g | 0.554 ± 0.064 %ID/g | 0.228 ± 0.058 %ID/g | blood uptake ([1]; 30 min p.i.): 0.424 ± 0.074 %ID/g; blood uptake ([1]; 60 min p.i.): 0.401 ± 0.029 %ID/g
7 | Cn1cc(-c2ccncc2)c(-c2ccc(OCc3cc(CCC[18F])c4ccccc4n3)cc2)n1 [[^18F]18c, 4-(3-(Fluoro-^18F)propyl)-2-((4-(1-methyl-4-(pyridin-4-yl)-1H-pyrazol-3-yl)phenoxy)methyl) quinoline] | – | 0.459 ± 0.049 %ID/g | 0.222 ± 0.014 %ID/g | 0.114 ± 0.015 %ID/g | 0.220 ± 0.100 %ID/g | 2.471 ± 0.487 %ID/g | 9.99 ± 1.27 %ID/g | 0.223 ± 0.067 %ID/g | 1.418 ± 0.182 %ID/g | 0.046 ± 0.006 %ID/g | 0.491 ± 0.035 %ID/g | 1.364 ± 0.077 %ID/g | 5.67 ± 0.73 %ID/g | 0.178 ± 0.016 %ID/g | 2.037 ± 0.303 %ID/g | 0.026 ± 0.005 %ID/g | 0.368 ± 0.077 %ID/g | 1.216 ± 0.180 %ID/g | 6.79 ± 2.49 %ID/g | 0.103 ± 0.030 %ID/g | ratio of activity in the striatum versus nontarget brain regions [2]: > 2 fold
8 | Cn1cc(-c2ccncc2)c(-c2ccc(OCc3cc(C[18F])c4ccccc4n3)cc2)n1 [[^18F]18b, 4-((Fluoro-^18F)methyl)-2-((4-(1-methyl-4-(pyridin-4-yl)-1H-pyrazol-3-yl)phenoxy)methyl) quinoline] | – | 0.471 ± 0.040 %ID/g | 0.421 ± 0.063 %ID/g | 0.128 ± 0.012 %ID/g | 0.343 ± 0.153 %ID/g | 1.799 ± 0.207 %ID/g | 10.16 ± 1.86 %ID/g | 0.227 ± 0.042 %ID/g | 4.055 ± 1.305 %ID/g | 0.094 ± 0.023 %ID/g | 0.352 ± 0.081 %ID/g | 1.351 ± 0.216 %ID/g | 4.01 ± 1.34 %ID/g | 0.174 ± 0.042 %ID/g | 5.620 ± 1.132 %ID/g | 0.069 ± 0.008 %ID/g | 0.222 ± 0.029 %ID/g | 0.573 ± 0.134 %ID/g | 3.10 ± 0.61 %ID/g | 0.107 ± 0.032 %ID/g | blood uptake ([1]; 30 min p.i.): 0.416 ± 0.062 %ID/g; blood uptake ([1]; 60 min p.i.): 0.201 ± 0.026 %ID/g; ratio of activity in the striatum versus nontarget brain regions [2]: > 2 fold
9 | Cn1cc(-c2ccncc2)c(-c2ccc(OCc3nc4ccccc4cc3OCC[18F])cc2)n1 [[^18F]20a, 3-((2-Fluoro-^18F)ethoxy)-2-((4-(1-methyl-4-(pyridin-4-yl)-1H-pyrazol-3-yl)phenoxy)methyl)-quinoline] | appeared more stable to in vivo defluorination | 0.343 ± 0.061 %ID/g | 0.182 ± 0.003 %ID/g | 0.092 ± 0.011 %ID/g | 0.119 ± 0.021 %ID/g | 1.789 ± 0.332 %ID/g | 4.24 ± 0.74 %ID/g | 0.166 ± 0.017 %ID/g | 0.144 ± 0.006 %ID/g | 0.129 ± 0.005 %ID/g | 0.202 ± 0.023 %ID/g | 1.022 ± 0.103 %ID/g | 3.17 ± 0.55 %ID/g | 0.156 ± 0.014 %ID/g | 0.224 ± 0.015 %ID/g | 0.149 ± 0.013 %ID/g | 0.124 ± 0.011 %ID/g | 0.841 ± 0.087 %ID/g | 1.80 ± 0.62 %ID/g | 0.134 ± 0.009 %ID/g | blood uptake ([1]; 30 min p.i.): 0.306 ± 0.016 %ID/g; blood uptake ([1]; 60 min p.i.): 0.287 ± 0.010 %ID/g; % peak 1 (radiometabolite, retention time ~3.5 min) (NHP plasma, 2 min p.i.): 0%; % peak 2 (radiometabolite, retention time ~7.5 min) (NHP plasma, 2 min p.i.): 0%; % parent (NHP plasma, 15 min p.i.): > 90%; % peak 1 (radiometabolite, retention time ~3.5 min) (NHP plasma, 15 min p.i.): 6%; % peak 2 (radiometabolite, retention time ~7.5 min) (NHP plasma, 15 min p.i.): 2%; % peak 1 (radiometabolite, retention time ~3.5 min) (NHP plasma, 30 min p.i.): 15%; % peak 2 (radiometabolite, retention time ~7.5 min) (NHP plasma, 30 min p.i.): 8%; % peak 1 (radiometabolite, retention time ~3.5 min) (NHP plasma, 60 min p.i.): 29%; % peak 2 (radiometabolite, retention time ~7.5 min) (NHP plasma, 60 min p.i.): 14%; % peak 1 (radiometabolite, retention time ~3.5 min) (NHP plasma, 90 min p.i.): 39%; % peak 2 (radiometabolite, retention time ~7.5 min) (NHP plasma, 90 min p.i.): 14%; radioactivity of arterial blood found in the plasma (plasma separated from packed red cells): 65–75%; ratio of activity in the striatum versus nontarget brain regions [2]: > 2 fold; ratios of uptake in the striatum vs nontarget brain regions ([3]; cynomolgus macaque microPET, by 40 min p.i.): > 3 fold; target:nontarget ratios ([3]; cynomolgus macaque microPET, by 70 min p.i.): > 5 fold; visualization of striatum in microPET ([3]; cynomolgus macaque, summed images 0 to 180 min): clear visualization of the PDE10A-enriched striatum
